Data: patent US20250214942A1, “INHIBITORS OF RECEPTOR INTERACTING PROTEIN KINASE I FOR THE TREATMENT OF DISEASE” (Board of Regents, The University of Texas System, priority 2019, published 2025)

System: human monocytic cell line U937
Assay: Human U937 cellular necroptosis assay (TNFalpha + z-VAD-FMK, Cell Titer-Glo viability)
Format: cell-based
Details: Homo sapiens, U-937, 22 h, U937 cells, 25 ng/mL human TNFalpha + 25 μM z-VAD-FMK, read-out: hU937 Avg IC50
Method: The human monocytic cell line U937 (CRL-1593.2) was purchased from ATCC. The cells were routinely maintained in RPMI-1640 Medium (Gibco, Catalog #11875-093) supplemented with 10% heat inactivated fetal bovine serum (Gibco, Catalog #16140-071), 100 units/mL penicillin and 100 μg/mL streptomycin (Gibco, Catalog #15140-122), in a humidified incubator (37° C., 5% CO2). For the assay, cells were resuspended in RPMI-1640 phenol red free Media (Gibco, Catalog #11835-030) supplemented with 10% fetal bovine serum (Sigma, Catalog #F2442), 100 units/mL penicillin and 100 ug/mL streptomycin. Cells were stimulated with 25 ng/mL human TNFalpha (Cell Sciences, Catalog #CSI15659B) and 25 μM z-VAD-FMK (R&D Systems, Catalog #FMK001) followed by seeding 5000 cells per well in a volume of 40 μL to a white, CulturPlate-384 (Perkin Elmer, Catalog #6007680). Stock solutions of the test compounds were prepared in 100% DMSO (Sigma, Catalog #D2650) and serially diluted 1:3 using 100% DMSO. Compounds were additionally diluted 1:40 in assay medium, and 10 μL/well was transferred to the plate. Following the compound addition the plate was incubated at 37° C. and 5% CO2 for 22 h. After 22 h, viability was assessed with the addition of 20 μL of Cell Titer-Glo 2.0 (Promega, Catalog #G9243). The tissue culture plate was shaken on an orbital shaker at 300 RPM for 15 minutes at rt in the dark. Luminescence was measured using a PerkinElmer Envision™ plate reader. IC50 values were calculated using a four-parameter logistic curve fit using Genedata Screener software. Results are shown below in Table 3, where the average value across multiple runs is given.

| SMILES | IC50 [µM] |
| --- | --- |
| Cc1cnc(C2CC=NN2C(=O)C23CC(Cn4ncc5nc(C#N)ccc54)(C2)C3)cn1 (stereo not drawn) [Example 235, 1-((3-(5-(5-methylpyrazin-2-yl)-4,5-dihydro-1H-pyrazole-1-carbonyl)bicyclo[1.1.1]-pentan-1-yl)methyl)-1H-pyrazolo[4,3-b]pyridine-5-carbonitrile] | 0.339 |
| Cc1cc(F)c(C2CC=NN2C(=O)C23CC(Cn4ncc5cc(C#N)ccc54)(C2)C3)cc1F (stereo not drawn) [Example 236, 1-((3-(5-(2,5-difluoro-4-methylphenyl)-4,5-dihydro-1H-pyrazole-1-carbonyl)-bicyclo[1.1.1]pentan-1-yl)-methyl)-1H-indazole-5-carbonitrile] | 0.0038 |
| N#Cc1ccc2c(cnn2CC23CC(C(=O)N4N=CCC4c4cccc(F)c4F)(C2)C3)c1 (stereo not drawn) [Example 237, 1-((3-(5-(2,3-difluoropheny1)-4,5-dihydro-1H-pyrazole-1-carbonyl)bicyclo[1.1.1]pentan-1-yl)methyl)-1H-indazole-5-carbonitrile] | 0.0078 |
| Cc1ccc(C2CC=NN2C(=O)C23CC(Cn4ncc5cc(C#N)ccc54)(C2)C3)c(F)c1 (stereo not drawn) [Example 238, 1-((3-(5-(2-fluoro-4-methyl-phenyl)-4,5-dihydro-1H-pyrazole-1-carbonyl)bicyclo-[1.1.1]pentan-1-yl)methyl)-1H-indazole-5-carbonitrile] | 0.0084 |
| Cc1ccc(C2CC=NN2C(=O)C23CC(Cn4ncc5cc(C#N)ccc54)(C2)C3)cc1F (stereo not drawn) [Example 239, 1-((3-(5-(3-fluoro-4-methyl-phenyl)-4,5-dihydro-1H-pyrazole-1-carbonyl)bicyclo-[1.1.1]pentan-1-yl)methyl)-1H-indazole-5-carbonitrile] | 0.01 |
| N#Cc1ccc2c(cnn2CC23CC(C(=O)N4N=CCC4c4ccc(F)cc4F)(C2)C3)c1 (stereo not drawn) [Example 240, 1-((3-(5-(2,4-difluorophenyl)-4,5-dihydro-1H-pyrazole-1-carbonyl)bicyclo[1.1.1]pentan-1-yl)methyl)-1H-indazole-5-carbonitrile] | 0.013 |
| N#Cc1ccc2c(cnn2CC23CC(C(=O)N4N=CCC4c4cc(F)c(Br)c(F)c4)(C2)C3)c1 (stereo not drawn) [Example 241, 1-((3-(5-(4-bromo-3,5-difluorophenyl)-4,5-dihydro-1H-pyrazole-1-carbonyl)-bicyclo[1.1.1]pentan-1-yl)-methyl)-1H-indazole-5-carbonitrile] | 0.018 |
| N#Cc1ccc2c(cnn2CC23CC(C(=O)N4N=CCC4c4ccc(F)c(F)c4)(C2)C3)c1 (stereo not drawn) [Example 242, 1-((3-(5-(3,4-difluorophenyl)-4,5-dihydro-1H-pyrazole-1-carbonyl)bicyclo[1.1.1]pentan-1-yl)methyl)-1H-indazole-5-carbonitrile] | 0.02 |
| Cc1cccc(C2CC=NN2C(=O)C23CC(Cn4ncc5cc(C#N)ccc54)(C2)C3)c1 (stereo not drawn) [Example 243, 1-((3-(5-(m-tolyl)-4,5-dihydro-1H-pyrazole-1-carbonyl)-bicyclo[1.1.1]pentan-1-yl)-methyl)-1H-indazole-5-carbonitrile] | 0.031 |
| N#Cc1ccc2c(cnn2CC23CC(C(=O)N4N=CCC4c4ccc(F)cc4)(C2)C3)c1 (stereo not drawn) [Example 244, 1-((3-(5-(4-fluorophenyl)-4,5-dihydro-1H-pyrazole-1-carbonyl)bicyclo[1.1.1]pentan-1-yl)methyl)-1H-indazole-5-carbonitrile] | 0.037 |
| N#Cc1ccc2c(cnn2CC23CC(C(=O)N4N=CCC4c4cccc(Cl)c4Cl)(C2)C3)c1 (stereo not drawn) [Example 245, 1-((3-(5-(2,3-dichlorophenyl)-4,5-dihydro-1H-pyrazole-1-carbonyl)bicyclo[1.1.1]pentan-1-yl)methyl)-1H-indazole-5-carbonitrile] | 0.043 |
| Cc1ncc(C2CC=NN2C(=O)C23CC(Cn4ncc5cc(C#N)ccc54)(C2)C3)cc1F (stereo not drawn) [Example 246, 1-((3-(5-(5-fluoro-6-methyl-pyridin-3-yl)-4,5-dihydro-1H-pyrazole-1-carbonyl)bicyclo-[1.1.1]pentan-1-yl)methyl)-1H-indazole-5-carbonitrile] | 0.073 |
| N#Cc1ccc2c(cnn2CC23CC(C(=O)N4N=CCC4c4ncc5ccccn45)(C2)C3)c1 (stereo not drawn) [Example 247, 1-((3-(5-(imidazo[1,5-a]-pyridin-3-yl)-4,5-dihydro-1H-pyrazole-1-carbonyl)bicyclo[1.1.1]pentan-1-yl)methyl)-1H-indazole-5-carbonitrile] | 0.081 |
| Cc1ccc(C2CC=NN2C(=O)C23CC(Cn4ncc5cc(C#N)ccc54)(C2)C3)cn1 (stereo not drawn) [Example 249, 1-((3-(5-(6-methylpyridin-3-yl)-4,5-dihydro-1H-pyrazole-1-carbonyl)bicyclo[1.1.1]-pentan-1-yl)methyl)-1H-indazole-5-carbonitrile] | 0.299 |
| Cc1csc(C2CC=NN2C(=O)C23CC(Cn4ncc5cc(C#N)ccc54)(C2)C3)n1 (stereo not drawn) [Example 250, 1-((3-(5-(4-methylthiazol-2-yl)-4,5-dihydro-1H-pyrazole-1-carbonyl)bicyclo[1.1.1]-pentan-1-yl)methyl)-1H-indazole-5-carbonitrile] | 0.267 |
| N#Cc1ccc2c(cnn2CC23CC(C(=O)N4N=CCC4c4ccc(C#N)s4)(C2)C3)c1 (stereo not drawn) [Example 251, 1-((3-(5-(5-cyanothiophen-2-yl)-4,5-dihydro-1H-pyrazole-1-carbonyl)bicyclo[1.1.1]-pentan-1-yl)methyl)-1H-indazole-5-carbonitrile] | 0.397 |
| N#Cc1ccc2c(cnn2CC23CC(C(=O)N4N=CCC4c4nc(C#N)cs4)(C2)C3)c1 (stereo not drawn) [Example 254, 2-(1-(3-((5-cyano-1H-indazol-1-yl)methyl)bicyclo[1.1.1]-pentane-1-carbonyl)-4,5-dihydro-1H-pyrazol-5-yl)-thiazole-4-carbonitrile] | 0.503 |
| C[C@H](NC(=O)C12CC(Cn3ncc4cc(C#N)ccc43)(C1)C2)c1c(F)cccc1Cl [Example 256, (S)-N-(1-(2-chloro-6-fluoro-phenyl)ethyl)-3-((5-cyano-1H-indazol-1-yl)methyl)bicyclo-[1.1.1]pentane-1-carboxamide] | 0.895 |
| CC1CC(c2cccc(F)c2)N(C(=O)C23CC(Cn4ncc5cc(C#N)ccc54)(C2)C3)C1 (stereo not drawn) [Example 257, 1-((3-(2-(3-fluorophenyl)-4-methylpyrrolidine-1-carbonyl)-bicyclo[1.1.1]pentan-1-yl)-methyl)-1H-indazole-5-carbonitrile] | 2.08 |
| N#Cc1ccc2c(cnn2CC23CC(C(=O)N4N=CCC4c4ncccn4)(C2)C3)c1 (stereo not drawn) [Example 259, 1-((3-(5-(pyrimidin-2-yl)-4,5-dihydro-1H-pyrazole-1-carbonyl)bicyclo[1.1.1]pentan-1-yl)methyl)-1H-indazole-5-carbonitrile] | 5.45 |
| Cc1c(F)cc(C2CC=NN2C(=O)C23CC(COc4ccc(C#N)cn4)(C2)C3)cc1F (stereo not drawn) [Example 264, 6-((3-(5-(3,5-difluoro-4-methylphenyl)-4,5-dihydro-1H-pyrazole-1-carbonyl)-bicyclo[1.1.1]pentan-1-yl)-methoxy)nicotinonitrile] | 0.012 |
| Cc1c(F)cc([C@@H]2CC=NN2C(=O)C23CC(COc4ccc(C#N)cn4)(C2)C3)cc1F [Example 265, (S)-6-((3-(5-(3,5-difluoro-4-methylphenyl)-4,5-dihydro-1H-pyrazole-1-carbonyl)-bicyclo[1.1.1]pentan-1-yl)-methoxy)nicotinonitrile] | 0.0083 |
| Cc1c(F)cc([C@H]2CC=NN2C(=O)C23CC(COc4ccc(C#N)cn4)(C2)C3)cc1F [Example 266, (R)-6-((3-(5-(3,5-difluoro-4-methylphenyl)-4,5-dihydro-1H-pyrazole-1-carbonyl)-bicyclo[1.1.1]pentan-1-yl)-methoxy)nicotinonitrile] | 1.8 |
| Cc1ccc(C2CC=NN2C(=O)C23CC(COc4cnc(C#N)cn4)(C2)C3)c(F)c1 (stereo not drawn) [Example 267, 5-((3-(5-(2-fluoro-4-methyl-phenyl)-4,5-dihydro-1H-pyrazole-1-carbonyl)bicyclo-[1.1.1]pentan-1-yl)methoxy)-pyrazine-2-carbonitrile] | 0.0038 |
| N#Cc1cnc(OCC23CC(C(=O)N4N=CCC4c4cc(F)ccc4F)(C2)C3)cn1 (stereo not drawn) [Example 268, 5-((3-(5-(2,5-difluorophenyl)-4,5-dihydro-1H-pyrazole-1-carbonyl)bicyclo[1.1.1]pentan-1-yl)methoxy)pyrazine-2-carbonitrile] | 0.0039 |
| Cc1ccc(C2CC=NN2C(=O)C23CC(COc4cnc(C#N)cn4)(C2)C3)cc1F (stereo not drawn) [Example 269, 5-((3-(5-(3-fluoro-4-methyl-phenyl)-4,5-dihydro-1H-pyrazole-1-carbonyl)bicyclo-[1.1.1]pentan-1-yl)-methoxy)pyrazine-2-carbonitrile] | 0.0054 |
| N#Cc1ccc(OCC23CC(C(=O)N4N=CCC4c4cccc(F)c4F)(C2)C3)nc1 (stereo not drawn) [Example 270, 6-((3-(5-(2,3-difluorophenyl)-4,5-dihydro-1H-pyrazole-1-carbonyl)bicyclo[1.1.1]pentan-1-yl)methoxy)nicotinonitrile] | 0.016 |
